This is an account of results in patent US12528815B2, “5-amino-8-(4-pyridyl)-[1,2,4]triazolo[4,3-c]pyrimidin-3-one compounds for use against cancer” (Nxera Pharma UK Limited, priority 2020, dated 2026).

Experiment [1] deals with T1, human adenosine A1 receptor (Homo sapiens, UniProt P30542).
T1 construct: expressed in transfected cells; host or cells: HEK293 cells infected with BacMam (the same paragraph also labels the preparation CHO-hA1)
T1 sequence (P30542 1-326): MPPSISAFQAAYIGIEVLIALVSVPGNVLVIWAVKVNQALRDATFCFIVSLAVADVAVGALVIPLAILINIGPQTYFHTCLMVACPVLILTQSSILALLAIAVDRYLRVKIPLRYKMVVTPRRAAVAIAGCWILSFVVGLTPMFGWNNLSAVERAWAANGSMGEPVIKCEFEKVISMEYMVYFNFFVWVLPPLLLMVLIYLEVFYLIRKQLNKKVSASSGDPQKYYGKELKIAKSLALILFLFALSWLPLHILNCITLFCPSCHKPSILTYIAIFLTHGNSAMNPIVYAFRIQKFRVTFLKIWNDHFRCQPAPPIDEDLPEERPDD
Briefly: Inhibition binding assay, human adenosine A1 receptor membranes, [3H]DPCPX. The conditions noted are these: 1 nM [3H]DPCPX, 25° C., 1 h; IC50 converted to Ki with Cheng-Prusoff; read-out: A1 pKi (converted). In outline:
(§1)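 Membranes from BacMam-infected HEK293 cells (0.2 μg A2A, 1.4 μg A1) incubated 1 h at 25° C with test compound and 1 nM [3H]ZM241385 (A2A; 50 mM Tris-HCl pH 7.4) or [3H]DPCPX (A1; plus 100 mM NaCl, 10 mM MgCl2). Nonspecific: 1 μM CGS15943 or DPCPX. Filtration, scintillation; IC50 converted to Ki via Cheng-Prusoff.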

The target of experiment [2] is T2, human adenosine A2A receptor (Homo sapiens, UniProt P29274).
T2 construct: expressed in transfected cells; host or cells: HEK293 cells infected with BacMam
T2 sequence (P29274 whole entry): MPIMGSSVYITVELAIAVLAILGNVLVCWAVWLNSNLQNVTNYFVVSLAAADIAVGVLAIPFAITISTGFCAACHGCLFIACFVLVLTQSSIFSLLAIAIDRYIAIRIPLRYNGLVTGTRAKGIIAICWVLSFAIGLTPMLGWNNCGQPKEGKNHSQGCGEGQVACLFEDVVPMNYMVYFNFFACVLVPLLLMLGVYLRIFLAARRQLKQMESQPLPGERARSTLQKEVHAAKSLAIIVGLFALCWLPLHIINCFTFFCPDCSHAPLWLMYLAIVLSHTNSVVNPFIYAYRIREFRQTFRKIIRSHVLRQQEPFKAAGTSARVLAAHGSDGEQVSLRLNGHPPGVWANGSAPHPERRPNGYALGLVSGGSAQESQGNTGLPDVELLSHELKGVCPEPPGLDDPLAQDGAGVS
Briefly: Inhibition binding assay, human adenosine A2A receptor membranes, [3H]ZM241385. The conditions noted are these: 1 nM [3H]ZM241385, HEK293-hA2A membranes, 25° C., 1 h; IC50 converted to Ki with Cheng-Prusoff; read-out: A2A pKi (converted). In outline: as §1

Each structure is given as a SMILES string.

Turning to `Cc1cc(-c2c(-c3ccccc3)nc(N)n3c(=O)n(C[C@H]4CN(C(=O)OC(C)(C)C)CCN4C)nc23)cc(C)n1` [Example 2-84, tert-butyl (R)-3-((5-amino-8-(2,6-dimethylpyridin-4-yl)-3-oxo-7-phenyl-[1,2,4]triazolo[4,3-c]pyrimidin-2(3H)-yl)methyl)-4-methylpiperazine-1-carboxylate], the figures for the Ki in experiment [1] and in experiment [2] were 0.316 µM and 0.00631 µM, respectively.
The like results for `CCC(c1ccc(F)cn1)n1nc2c(-c3cc(C)nc(CO)c3)c(-c3ccccc3)nc(N)n2c1=O` (single isomer, unassigned) [1-46 iso-2, 5-amino-2-[1-(5-fluoro-2-pyridyl)propyl]-8-[2-(hydroxymethyl)-6-methyl-4-pyridyl]-7-phenyl-[1,2,4]triazolo[4,3-c]pyrimidin-3-one] were, in that order, greater than 2.51 µM and 0.1 µM.
For `COc1cc(-c2c(-c3ccccc3)nc(N)n3c(=O)n(Cc4ccc(F)cn4)nc23)cc(CO)n1` [Example 1-73, 5-amino-2-[(5-fluoro-2-pyridyl)methyl]-8-[2-(hydroxymethyl)-6-methoxy-4-pyridyl]-7-phenyl-[1,2,4]triazolo[4,3-c]pyrimidin-3-one] the same measures were 0.398 µM and 0.00251 µM.
The like results for `Cc1cc(-c2c(-c3ccccc3)nc(N)n3c(=O)n(CC4CCCS(=O)(=O)C4)nc23)cc(C)n1` (single isomer, unassigned) [Example 2-89-iso-2, 5-amino-8-(2,6-dimethyl-4-pyridyl)-2-[(1,1-dioxothian-3-yl)methyl]-7-phenyl-[1,2,4]triazolo[4,3-c]pyrimidin-3-one] were, in that order, 0.316 µM and 0.0251 µM.
Regarding `Cc1cc(-c2c(-c3ccccc3)nc(N)n3c(=O)n(C(CN)Cc4ccc(F)cc4F)nc23)cc(C)n1` (stereo not shown) [Example 1-100, 5-amino-2-[1-(aminomethyl)-2-(2,4-difluorophenyl)ethyl]-8-(2,6-dimethyl-4-pyridyl)-7-phenyl-[1,2,4]triazolo[4,3-c]pyrimidin-3-one], the Ki in experiment [1] is 0.316 µM; in experiment [2] it was 0.158 µM.
For the molecule `Cc1cc(-c2c(-c3ccccc3)nc(N)n3c(=O)n(CCC#N)nc23)cc(C)n1` [Example 2-11, 3-[5-amino-8-(2,6-dimethyl-4-pyridyl)-3-oxo-7-phenyl-[1,2,4]triazolo[4,3-c]pyrimidin-2-yl]propanenitrile], the Ki is 0.794 µM in experiment [1] and 0.0158 µM in experiment [2].
For `[2H]c1c([2H])c([2H])c(-c2nc(N)n3c(=O)n(CCC(F)(F)F)nc3c2-c2cc(C)nc(CO)c2)c([2H])c1[2H]` [Example 2-61, 5-amino-8-[2-(hydroxymethyl)-6-methyl-4-pyridyl]-7-(2,3,4,5,6-pentadeuteriophenyl)-2-(3,3,3-trifluoropropyl)-[1,2,4]triazolo[4,3-c]pyrimidin-3-one] the same measures were 0.631 µM and 0.00126 µM.
Take `COC(=O)c1nc(N)n2c(=O)n(CCC(F)(F)F)nc2c1-c1cc(C)nc(C)c1` [Example 3-6, methyl 5-amino-8-(2,6-dimethyl-4-pyridyl)-3-oxo-2-(3,3,3-trifluoropropyl)-[1,2,4]triazolo[4,3-c]pyrimidine-7-carboxylate]: the values for the Ki in experiment [1] and in experiment [2] were greater than 3.16 µM and 0.2 µM, respectively.
For `CCOc1ccccc1Cn1nc2c(-c3cc(C)nc(C)c3)c(-c3ccccc3)nc(N)n2c1=O` [Example 1-25, 5-amino-8-(2,6-dimethyl-4-pyridyl)-2-[(2-ethoxyphenyl)methyl]-7-phenyl-[1,2,4]triazolo[4,3-c]pyrimidin-3-one] the same measures were 0.00631 µM and 0.0002 µM.
The like results for `CCn1nc2c(-c3cc(C)nc(C)c3)c(-c3ccccc3)nc(N)n2c1=O` [Example 2-3, 5-amino-8-(2,6-dimethyl-4-pyridyl)-2-ethyl-7-phenyl-[1,2,4]triazolo[4,3-c]pyrimidin-3-one] were, in that order, 0.631 µM and 0.02 µM.
In the case of `Nc1nc(-c2ccccc2)c(-c2cc(Cl)nc(C(F)(F)F)c2)c2nn(Cc3ccc(F)cn3)c(=O)n12` [Example 1-79, 5-amino-8-[2-chloro-6-(trifluoromethyl)-4-pyridyl]-2-[(5-fluoro-2-pyridyl)methyl]-7-phenyl-[1,2,4]triazolo[4,3-c]pyrimidin-3-one], the results for the Ki in experiment [1] and in experiment [2] were 0.251 µM and 0.00251 µM, respectively.
The like results for `Cc1cc(-c2c(-c3ccccc3)nc(N)n3c(=O)n(CCc4ccc(O)cc4)nc23)cc(C)n1` [Example 1-82, 5-amino-8-(2,6-dimethyl-4-pyridyl)-2-[2-(4-hydroxyphenyl)ethyl]-7-phenyl-[1,2,4]triazolo[4,3-c]pyrimidin-3-one] were, in that order, 0.251 µM and 0.0126 µM.
For `Cc1cc(-c2c(-c3ccccc3)nc(N)n3c(=O)n(Cc4ccc(Br)cn4)nc23)cc(CO)n1` [Example 1-53, 5-amino-2-[(5-bromo-2-pyridyl)methyl]-8-[2-(hydroxymethyl)-6-methyl-4-pyridyl]-7-phenyl-[1,2,4]triazolo[4,3-c]pyrimidin-3-one] the same measures were 0.501 µM and 0.00251 µM.
For `Cc1cc(-c2c(-c3ccccc3)nc(N)n3c(=O)n(Cc4ccc(F)cn4)nc23)cc(O)n1` [Example 1-74, 5-amino-2-[(5-fluoro-2-pyridyl)methyl]-8-(2-hydroxy-6-methyl-4-pyridyl)-7-phenyl-[1,2,4]triazolo[4,3-c]pyrimidin-3-one] the same measures were greater than 3.16 µM and 0.316 µM.
Take `Cc1cc(-c2c(-c3ccccc3)nc(N)n3c(=O)n(CCNC(=O)OC(C)(C)C)nc23)cc(C)n1` [Example 2-14, tert-butyl N-[2-[5-amino-8-(2,6-dimethyl-4-pyridyl)-3-oxo-7-phenyl-[1,2,4]triazolo[4,3-c]pyrimidin-2-yl]ethyl]carbamate]: the Ki in experiment [1] was 0.794 µM; in experiment [2], 0.1 µM.
Regarding `Cc1cc(-c2c(-c3ccccc3)nc(N)n3c(=O)n(Cc4ccc(F)cn4)nc23)cc(N(C)C)n1` [Example 1-71, 5-amino-8-[2-(dimethylamino)-6-methyl-4-pyridyl]-2-[(5-fluoro-2-pyridyl)methyl]-7-phenyl-[1,2,4]triazolo[4,3-c]pyrimidin-3-one], the figures for the Ki in experiment [1] and in experiment [2] were 0.631 µM and 0.02 µM, respectively.
For `Cc1cc(-c2c(-c3ccccc3)nc(N)n3c(=O)n(CC4CCCOC4)nc23)cc(C)n1` (single isomer, unassigned) [Example 2-81-iso-2, 5-amino-8-(2,6-dimethyl-4-pyridyl)-7-phenyl-2-(tetrahydropyran-3-ylmethyl)-[1,2,4]triazolo[4,3-c]pyrimidin-3-one] the same measures were 0.126 µM and 0.001 µM.
The like results for `Cc1cc(-c2c(-c3ccccc3)nc(N)n3c(=O)n(C(C)c4cccnc4)nc23)cc(C)n1` (stereo not shown) [Example 1-27, 5-amino-8-(2,6-dimethyl-4-pyridyl)-7-phenyl-2-[1-(3-pyridyl)ethyl]-[1,2,4]triazolo[4,3-c]pyrimidin-3-one] were, in that order, 0.251 µM and 0.01 µM.
For `Cc1cc(-c2c(-c3ccccc3)nc(N)n3c(=O)n(CCC(=O)N(C)C)nc23)cc(C)n1` [Example 2-23, 3-[5-amino-8-(2,6-dimethyl-4-pyridyl)-3-oxo-7-phenyl-[1,2,4]triazolo[4,3-c]pyrimidin-2-yl]-N,N-dimethyl-propanamide] the same measures were 1 µM and 0.0126 µM.
As for `Cc1cc(-c2c(-c3ccccc3)nc(N)n3c(=O)n(Cc4ccccc4C)nc23)cc(C)n1` [Example 1-17, 5-amino-8-(2,6-dimethyl-4-pyridyl)-2-(o-tolylmethyl)-7-phenyl-[1,2,4]triazolo[4,3-c]pyrimidin-3-one], the Ki was 0.001 µM in experiment [1] and 0.000316 µM in experiment [2].
For `Cc1ccc(Cn2nc3c(-c4cc(C)nc(CO)c4)c(-c4ccc(F)cc4)nc(N)n3c2=O)nc1` [Example 1-61, 5-amino-7-(4-fluorophenyl)-8-[2-(hydroxymethyl)-6-methyl-4-pyridyl]-2-[(5-methyl-2-pyridyl)methyl]-[1,2,4]triazolo[4,3-c]pyrimidin-3-one] the same measures were greater than 1.58 µM and 0.00158 µM.
Regarding `CCOc1nc(N)n2c(=O)n(CCC(F)(F)F)nc2c1-c1cc(C)nc(C)c1` [Example 3-3, 5-amino-8-(2,6-dimethyl-4-pyridyl)-7-ethoxy-2-(3,3,3-trifluoropropyl)-[1,2,4]triazolo[4,3-c]pyrimidin-3-one], the Ki is greater than 3.16 µM in experiment [1] and 0.158 µM in experiment [2].
For `Cc1cc(-c2c(-c3ccccc3)nc(N)n3c(=O)n(Cc4ccccc4C4CCNCC4)nc23)cc(C)n1` [Example 1-30, 5-amino-8-(2,6-dimethyl-4-pyridyl)-7-phenyl-2-[[2-(4-piperidyl)phenyl]methyl]-[1,2,4]triazolo[4,3-c]pyrimidin-3-one] the same measures were 0.0398 µM and 0.000501 µM.
